The values that follow come from patent US11034650B2, “Compounds useful for treating a Mannheimia haemolytica or Histophilus somni infection” (Intervet Inc., priority 2016, dated 2021).

Converted amounts (≈) assume the structure as drawn.

What all share (format): cell-based
Test [1] relates to Pasteurella multocida PM 12080 (IV102277-0093, BRD field isolate). The test is described as follows: MIC, broth-microdilution (CLSI VET01-A4), strain PM 12080. The following applies: Pasteurella multocida strain PM 12080, broth-microdilution; unit assumed. In short, it runs like this:
(§1)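 Broth microdilution per CLSI VET01-A4, using trays with a doubling dilution series of compound; results interpreted per CLSI VET01-S3. MIC taken as lowest concentration with no turbidity visible to the unaided eye.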
For orientation: In broth dilution the organism is exposed to a series of concentrations in liquid medium.

The subject of test [2] is Pasteurella multocida PM 6267 (P 2225 (L386), reference strain, mouse infection strain). The test is described as follows: MIC, broth-microdilution (CLSI VET01-A4), strain PM 6267. The settings on record: Pasteurella multocida strain PM 6267, broth-microdilution; unit assumed. In short, it runs like this: as §1
For test [3], the system named is Mannheimia haemolytica MH 13093 (XB0472-6014.1, BRD field isolate). The test is described as follows: MIC, broth-microdilution (CLSI VET01-A4), strain MH 13093. The following applies: Mannheimia haemolytica strain MH 13093, broth-microdilution; unit assumed. The procedure, abridged:
as §1

Test [4] concerns Mannheimia haemolytica MH 6374 (ATCC 33396, reference strain). The test is described as follows: MIC, broth-microdilution (CLSI VET01-A4), strain MH 6374. The following applies: Mannheimia haemolytica strain MH 6374, broth-microdilution; unit assumed. The procedure, abridged:
as §1

The subject of test [5] is Pasteurella multocida PM 10775 (080130003051, BRD field isolate). The test is described as follows: MIC, broth-microdilution (CLSI VET01-A4), strain PM 10775. The settings on record: Pasteurella multocida strain PM 10775, broth-microdilution; unit assumed. In short, it runs like this: as §1
For test [6], the system named is Pasteurella multocida PM 6391 (ATCC 43137, reference strain). The test is described as follows: MIC, broth-microdilution (CLSI VET01-A4), strain PM 6391. The settings on record: Pasteurella multocida strain PM 6391, broth-microdilution; unit assumed. The procedure, abridged: as §1
Test [7] deals with Mannheimia haemolytica MH 13065 (XB0446-6003.9, BRD field isolate). The test is described as follows: MIC, broth-microdilution (CLSI VET01-A4), strain MH 13065. The following applies: Mannheimia haemolytica strain MH 13065, broth-microdilution; unit assumed. The procedure, abridged: as §1
The test system of test [8] is Mannheimia haemolytica MH 12587 (1071, BRD field isolate, macrolide-resistance: erm+, E+). The test is described as follows: MIC, broth-microdilution (CLSI VET01-A4), strain MH 12587. The settings on record: Mannheimia haemolytica strain MH 12587, broth-microdilution; unit assumed. The procedure, abridged: as §1
Test [9] relates to Mannheimia haemolytica MH 6357 (M7/2, reference strain, cattle infection strain). The test is described as follows: MIC, broth-microdilution (CLSI VET01-A4), strain MH 6357. The following applies: Mannheimia haemolytica strain MH 6357, broth-microdilution; unit assumed. In short, it runs like this: as §1
In test [10] the test system is Mannheimia haemolytica MH 10720 (154, BRD field isolate). The test is described as follows: MIC, broth-microdilution (CLSI VET01-A4), strain MH 10720. The following applies: Mannheimia haemolytica strain MH 10720, broth-microdilution; unit assumed. In short, it runs like this: as §1

As to `CC(C)([C@H](NC(=O)c1ccc(C#Cc2ccc(CN3CCOCC3)cc2)cc1)C(=O)NO)S(C)(=O)=O` [Compound 258], the MIC PM 12080 in [1] is ≤ 0.1 µg/mL. The MIC PM 6267 in [2] is ≤ 0.1 µg/mL. This compound had an MIC MH 13093 in test [3] of 1.6 µg/mL (≈ 3.12 µM). Moreover, the MIC MH 6374 in test [4] was determined as 1.6 µg/mL (≈ 3.12 µM). Besides, the MIC PM 10775 in test [5] is ≤ 0.1 µg/mL. In addition, the MIC PM 6391 in test [6] was ≤ 0.1 µg/mL. The MIC MH 13065 in [7] turned out to be 0.8 µg/mL (≈ 1.56 µM). This compound also registered an MIC MH 12587 in [8] of 1.6 µg/mL (≈ 3.12 µM). In test [9], this compound returned an MIC MH 6357 of 1.6 µg/mL (≈ 3.12 µM). The compound further registered an MIC MH 10720 in [10] of 0.2 µg/mL (≈ 0.389 µM).
Turning to `COc1ccc(CNCc2ccc(C#Cc3ccc(C(=O)N[C@H](C(=O)NO)C(C)(C)S(C)(=O)=O)cc3)cc2)cc1` [Compound 260], the MIC PM 12080 in [1] is ≤ 0.1 µg/mL. In addition, the MIC PM 6267 in test [2] was ≤ 0.1 µg/mL. The compound also gave an MIC MH 13093 in test [3] of 0.8 µg/mL (≈ 1.42 µM). The MIC MH 6374 in [4] worked out at 0.4 µg/mL (≈ 0.71 µM). Besides, the MIC PM 10775 in test [5] is ≤ 0.1 µg/mL. The MIC PM 6391 in test [6] was ≤ 0.1 µg/mL. Besides, the MIC MH 13065 in test [7] was determined as 0.4 µg/mL (≈ 0.71 µM). In [8], this compound showed an MIC MH 12587 of 1.6 µg/mL (≈ 2.84 µM). The MIC MH 6357 in [9] was 1.6 µg/mL (≈ 2.84 µM). In addition, the MIC MH 10720 in [10] is ≤ 0.1 µg/mL.
`CC(C)([C@H](NC(=O)c1ccc(C#Cc2ccc(CN3CCCC3)cc2)cc1)C(=O)NO)S(C)(=O)=O` [Compound 262] displayed an MIC PM 12080 in test [1] of 0.4 µg/mL (≈ 0.804 µM). In test [2], the MIC PM 6267 was ≤ 0.1 µg/mL. The same compound returned an MIC MH 13093 in test [3] of 6.3 µg/mL (≈ 12.7 µM). Moreover, the MIC MH 6374 in test [4] was found to be 6.3 µg/mL (≈ 12.7 µM). The MIC PM 10775 in test [5] was ≤ 0.1 µg/mL. In test [6], this compound showed an MIC PM 6391 of 0.4 µg/mL (≈ 0.804 µM). In addition, the MIC MH 13065 in test [7] amounted to 6.3 µg/mL (≈ 12.7 µM). In test [8], this compound displayed an MIC MH 12587 of 12.5 µg/mL (≈ 25.1 µM). This compound gave an MIC MH 6357 in test [9] of 12.5 µg/mL (≈ 25.1 µM). In addition, in test [10], the MIC MH 10720 stood at 1.6 µg/mL (≈ 3.22 µM).
`CC(C)([C@H](NC(=O)c1ccc(C#Cc2ccc(CNC3CCC3)cc2)cc1)C(=O)NO)S(C)(=O)=O` [Compound 263] returned an MIC PM 12080 in test [1] of 0.2 µg/mL (≈ 0.402 µM). The MIC PM 6267 in [2] is ≤ 0.1 µg/mL. The MIC MH 13093 in [3] was 3.1 µg/mL (≈ 6.23 µM). Further, the MIC MH 6374 in test [4] came out at 3.1 µg/mL (≈ 6.23 µM). Moreover, in [5], the MIC PM 10775 was ≤ 0.1 µg/mL. For the same compound, the MIC PM 6391 in test [6] is 0.4 µg/mL (≈ 0.804 µM). Also, the MIC MH 13065 in [7] worked out at 3.1 µg/mL (≈ 6.23 µM). The compound also returned an MIC MH 12587 in [8] of 6.3 µg/mL (≈ 12.7 µM). Also, the MIC MH 6357 in test [9] amounted to 6.3 µg/mL (≈ 12.7 µM). The same compound displayed an MIC MH 10720 in test [10] of 0.8 µg/mL (≈ 1.61 µM).
For the compound `CC(C)([C@H](NC(=O)c1ccc(C#Cc2ccc(CNC3CCCC3)cc2)cc1)C(=O)NO)S(C)(=O)=O` [Compound 264], the MIC PM 12080 in test [1] was 0.4 µg/mL (≈ 0.782 µM). Moreover, in test [2], the MIC PM 6267 turned out to be 0.2 µg/mL (≈ 0.391 µM). The same compound returned an MIC MH 13093 in test [3] of 6.3 µg/mL (≈ 12.3 µM). Further, in test [4], the MIC MH 6374 turned out to be 12.5 µg/mL (≈ 24.4 µM). Further, the MIC PM 10775 in test [5] was ≤ 0.1 µg/mL. In addition, in test [6], the MIC PM 6391 was 0.8 µg/mL (≈ 1.56 µM). Besides, the MIC MH 13065 in test [7] was 6.3 µg/mL (≈ 12.3 µM). In addition, the MIC MH 12587 in test [8] was determined as 12.5 µg/mL (≈ 24.4 µM). The compound also returned an MIC MH 6357 in test [9] of 12.5 µg/mL (≈ 24.4 µM). The compound further showed an MIC MH 10720 in [10] of 1.6 µg/mL (≈ 3.13 µM).
With `CCCNCc1ccc(C#Cc2ccc(C(=O)N[C@H](C(=O)NO)C(C)(C)S(C)(=O)=O)cc2)cc1` [Compound 265], the MIC PM 12080 in test [1] was determined as 0.4 µg/mL (≈ 0.824 µM). For the same compound, the MIC PM 6267 in [2] is ≤ 0.1 µg/mL. Besides, the MIC MH 13093 in test [3] was found to be 3.1 µg/mL (≈ 6.38 µM). For the same compound, the MIC MH 6374 in [4] came to 6.3 µg/mL (≈ 13 µM). Moreover, the MIC PM 10775 in test [5] is ≤ 0.1 µg/mL. The compound further displayed an MIC PM 6391 in test [6] of 0.8 µg/mL (≈ 1.65 µM). This compound gave an MIC MH 13065 in test [7] of 3.1 µg/mL (≈ 6.38 µM). The MIC MH 12587 in test [8] was 6.3 µg/mL (≈ 13 µM). Further, the MIC MH 6357 in [9] came out at 6.3 µg/mL (≈ 13 µM). In test [10], this compound returned an MIC MH 10720 of 0.8 µg/mL (≈ 1.65 µM).
Turning to `CC(C)([C@H](NC(=O)c1ccc(C#Cc2ccc(CNCC#N)cc2)cc1)C(=O)NO)S(C)(=O)=O` [Compound 266], the MIC PM 12080 in test [1] is ≤ 0.1 µg/mL. In addition, the MIC PM 6267 in test [2] is ≤ 0.1 µg/mL. The compound further had an MIC MH 13093 in test [3] of 0.8 µg/mL (≈ 1.66 µM). This compound also showed an MIC MH 6374 in test [4] of 0.4 µg/mL (≈ 0.829 µM). Besides, in test [5], the MIC PM 10775 was ≤ 0.1 µg/mL. In addition, in [6], the MIC PM 6391 was ≤ 0.1 µg/mL. Moreover, the MIC MH 13065 in [7] was determined as 0.8 µg/mL (≈ 1.66 µM). For the same compound, the MIC MH 12587 in [8] was 1.6 µg/mL (≈ 3.32 µM). In test [9], this compound displayed an MIC MH 6357 of 0.8 µg/mL (≈ 1.66 µM). Further, the MIC MH 10720 in test [10] is ≤ 0.1 µg/mL.
`CC(C)([C@H](NC(=O)c1ccc(C#Cc2ccc(CNCc3ccnc(Cl)c3)cc2)cc1)C(=O)NO)S(C)(=O)=O` [Compound 268]: the MIC PM 12080 in [1] is ≤ 0.1 µg/mL. Besides, in test [2], the MIC PM 6267 is ≤ 0.1 µg/mL. In addition, the MIC MH 13093 in [3] was found to be 0.4 µg/mL (≈ 0.703 µM). This compound also had an MIC MH 6374 in test [4] of 0.4 µg/mL (≈ 0.703 µM). Moreover, in test [5], the MIC PM 10775 was ≤ 0.1 µg/mL. Moreover, the MIC PM 6391 in test [6] was ≤ 0.1 µg/mL. In addition, in test [7], the MIC MH 13065 was determined as 0.2 µg/mL (≈ 0.351 µM). Further, the MIC MH 12587 in test [8] came out at 0.8 µg/mL (≈ 1.41 µM). In [9], this compound yielded an MIC MH 6357 of 0.4 µg/mL (≈ 0.703 µM). In addition, the MIC MH 10720 in test [10] was ≤ 0.1 µg/mL.
